Measurements as given in patent US20230355645A1, “PHARMACEUTICAL COMPOSITION” (priority 2020, published 2023).

Legend:
[1] = tested on: Balb/c 3T3-L1 mouse fibroblasts; assay: Cytotoxicity assay, neutral red incorporation; format: cell-based; details: 24 h
Method: Balb/c 3T3-L1 mouse fibroblasts (ECACC 86052701) were used in the cytotoxicity assay. The cells were cultured in D-MEM medium (Dulbecco's modification of Eagle's essential medium, Lonza) containing antibiotics (penicillin 100 IU/ml, streptomycin 100 ug/ml), enriched with 10% inactivated calf serum, pH 7.2.
Suppositories prepared according to Example 1 were tested. The positive control (PK) was sodium lauryl sulfate (SLS), the cell control was serum-free culture medium.
The suppository extract was prepared in the ratio of 0.2 g of sample per 1 ml of extracting agent (serum-free D-MEM) according to ČSN EN ISO 10993-12 (2012). The extraction was performed for 24 hours at 37° C., in a closed culture flask under aseptic conditions according to ČSN EN ISO 10993-5 (2012). The resulting 100% extract was further diluted with serum-free culture medium.
Flat bottom tissue culture plates of 8×12 wells were used to culture the cells. The cells were suspended at a concentration of 10^5 cells in 1 ml of the culture medium, inoculating 0.1 ml of the suspension into 1 well. Culture conditions 37° C., 7.5% CO2. Pre-cultivation to obtain a cell culture monolayer was performed 24 hours before exposure to the test material. The cultures were established in quadruplets for the test extracts and for the controls. After 24 hours of precultivation, the culture medium and 0.2 ml of the extract from the test sample, or its serial dilution, respectively. This was followed by culture for 24 hours at 37° C., 7.5% CO2 and staining with neutral red (0.2 ml of neutral red solution per well, incubation for 3 hours, ethanol/acetic acid fixation solution). After completion of the culture, cytotoxicity was determined quantitatively (fluorimetrically) based on the incorporation of neutral red as a vital dye.
The fluorimetric method for determining cytotoxicity is based on the incorporation of a vital dye into living cells and the detection of fluorescence in an excitation (530 nm) and emission filter (590 nm) system using cold light. The degree of cytotoxicity is expressed in % of the detected fluorescence in the culture containing the test extract relative to the control culture in the absence of the test extract. Fluorescence is detected in FSU units of fluorescence intensity. For quantification, the viability of the culture is calculated as follows:
culture viability (%)=(average FSU of the test sample−average FSU of the blank)/(average FSU of the control−average FSU of the blank)
The mean fluorescence values for each group represent the average fluorescence value from all four wells after subtracting the average fluorescence value of the eight wells with fixation solution (blank). The control is serum-free culture medium.

human volunteers = details: in vivo
Caco-2 cells = assay: MTT test, toxicity of CBD towards Caco-2; format: cell-based, human; details: CBD 3 and 5 μmol/l, 24 h incubation
Method: (§1) Human Caco-2 intestinal cells and Ishikawa endometrial cells were used in an in vitro study of the effect of cannabidiol (CBD) and sodium hyaluronate. In the first phase of the experiment, the safe concentration of CBD was determined based on the results of MTT measurements, a test for the reduction of 3-(4,5-dimethylthiazol-2-yl)-2,5-diphenyltetrazolium bromide (MTT) to the corresponding formazan. The test was performed according to M. D. Maines, L. G. Costa, D. J. Reed, et al. Current protocols in toxicology. New York: John Wiley & Sons. (1998).
(§2) Cells seeded in a 96-well plate at a concentration of 3×10^4 cells/ml, 100 μl/well, which were allowed to adhere for 24 hours, were subsequently incubated for 24 hours with CBD in a concentration range of 100 to 0.78 μmol/l dissolved in serum-free culture medium containing MEM (Minimum Essential Medium Eagle) supplemented by 2 mM glutamine, 1% NEAA (Non essential Amino Acid), and penicillin 100 IU/ml and streptomycin 100 ug/ml. At the end of the incubation period, 100 μl of MTT mixture (0.5 mg/mL in serum-free culture medium) was added for the period of 2 hours. At the end of the incubation period and aspiration of the MTT mixture, 100 μl of DMSO with NH3 (1%, v/v) were added. The absorbance was measured at 540 nm (INFINITE M200 PRO Tecan, Schoeller). […]

[2] = tested on: Ishikawa endometrial cells; assay: MTT test, toxicity of CBD towards Ishikawa; format: cell-based, human; details: CBD 3 and 5 μmol/l, 24 h incubation
Method: as §1, §2

[3] = tested on: IL-6 production by Caco-2 cells; assay: Production of IL-6 by Caco-2 cells following incubation with LPS (ELISA); format: cell-based, human; details: Caco-2, after LPS induction, both doses (3 and 5 μmol/l)
Method: (§3) Cells (Caco-2, Ishikawa) were seeded in 6-well plates in culture medium containing MEM (Minimum Essential Medium Eagle) supplemented by 2 mM glutamine, 1% NEAA (Non essential Amino Acid), 10% FBS (Fetal Bovine Serum), penicillin 100 IU/ml and streptomycin 100 ug/ml and allowed to adhere for a minimum of 24 hours and then allowed to grow to confluence. They were then rinsed with PBS (2 ml) and treated with LPS (E. coli) 2 μg/ml in serum-free culture medium, 2 ml per well 3 times after 3 hours. After the last 3 hours of incubation, the test substances (CBD, CBD+HA in serum-free culture medium) were added to the cells and the samples were incubated for another 22 hours. The culture medium was then removed, frozen at −80° C. for downstream determination of pro-inflammatory cytokines (IL-6 and IL-8) by ELISA (Human ELISA Development Kit, Cat. Nos. 900-K16 and 900-K18, PeproTech, Baria, Czech Republic). The results are expressed relative to a control K (cells cultured only with serum-free culture medium), as a percentage of the control, expressed as mean±SEM. The measurement was performed in three independent experiments. KL are cells cultured with LPS. Testing was performed in triplicates.

[4] = tested on: IL-8 production by Caco-2 cells; assay: Production of IL-8 by Caco-2 cells following incubation with LPS (ELISA); format: cell-based, human; details: Caco-2, after LPS induction, higher dose of CBD
Method: as §3

[5] = tested on: IL-6 production by Ishikawa cells; assay: Production of IL-6 by Ishikawa cells following incubation with LPS (ELISA); format: cell-based, human; details: after LPS induction, both doses (3 and 5 μmol/l)
Method: as §3

[6] = tested on: IL-8 production by Ishikawa cells; assay: Production of IL-8 by Ishikawa cells following incubation with LPS (ELISA); format: cell-based, human; details: after LPS induction, both doses of CBD
Method: as §3

[7] = tested on: IL-6 production by Caco-2 cells; details: Caco-2 model, Couch et al. Clin. Sci. 2017; cited from earlier work
[8] = cited from earlier work
[9] = especially in solution by exposure to light, atmospheric oxygen and acidic pH; cited from earlier work

In the case of `CCCCCCCCCCCCOS(=O)(=O)[O-].[Na+]` [PK-SLS, sodium lauryl sulfate], the “Mean fluorescence (FSU)” value ([1]; Test 1, 1 μg/ml) is reported as 2743.4 FSU, the “Relative to control %” value ([1]; Test 1, 1 μg/ml) is reported as 98.8% and the “Mean fluorescence (FSU)” value ([1]; Test 1, 10 μg/ml) is reported as 891.1 FSU. The “Relative to control %” value ([1]; Test 1, 10 μg/ml) was 32.1%, the “Mean fluorescence (FSU)” value ([1]; Test 1, 20 μg/ml) was 113.9 FSU and the “Relative to control %” value ([1]; Test 1, 20 μg/ml) was 16.0%. For the same compound, the “Mean fluorescence (FSU)” value ([1]; Test 2, 1 μg/ml) was 3187.8 FSU, the “Relative to control %” value ([1]; Test 2, 1 μg/ml) was 98.9% and the “Mean fluorescence (FSU)” value ([1]; Test 2, 10 μg/ml) was 542.5 FSU. For the same compound, the “Relative to control %” value ([1]; Test 2, 10 μg/ml) was 16.8%, the “Mean fluorescence (FSU)” value ([1]; Test 2, 20 μg/ml) was 326.3 FSU and the “Relative to control %” value ([1]; Test 2, 20 μg/ml) was 10.1%. The “Total number of reactions, Reaction yes/no” value (human volunteers; human) was 30/30 and the Reaction yes/no (human volunteers) was “YES”.

For `C=C(C)[C@@H]1CCC(C)=C[C@H]1c1c(O)cc(CCCCC)cc1O` [CBD, Cannabidiol], the “toxicity by MTT values” (Caco-2 cells) was “sub-toxic”, the “toxicity by MTT values” [2] was “sub-toxic” and the IL-6 levels [3] was “significant decrease”. For the same compound, the IL-8 concentration [4] was “at the same level”, the IL-6 levels [5] was “significant decrease” and the IL-8 levels [6] was “decrease”. For the same compound, the “increase in IL-6 concentration compared to the original value after induction of inflammation” value [7] was “more than 70%”, the “log P” value [8] was 6-7 and the stability [9] was “prone to degradation”.
